These results are taken from patent US20040077697A1, “2-Acylaminothiazole derivative or its salt” (priority 2001, published 2004).

In general, melting point refers to the temperature of the solid-liquid transition.

The subject of one data set is human CD34+ cell. Nature of the data set: Megakaryocyte colony formation promoting action. As to conditions: MegaCult-C, 10 to 14 days, colonies per well, average of three. The class given is cell-based. As to the method: <Megakaryocyte Colony Formation Promoting Action>
A human CD34^+ cell was cultured at 37° C. for 10 to 14 days in the presence of a test compound in a 2-well chamber slide by using MegaCult™-C (produced by StemCell Technologies). According to the manufacturer's instructions, the slide was dehydrated, fixed, and then stained with an anti-glycoprotein IIb/IIIa antibody. A colony containing three or more of the glycoprotein IIb/IIIa positive megakaryocyte cells was defined as one colony, and the number of colonies per well was microscopically measured. The assay was replicated thrice, and an average value was evaluated as the number of megakaryocyte colonies.

In the case of `COc1cc(OC)cc(C(=O)Nc2nc(-c3ccccc3)c(N3CCOCC3)s2)c1.Cl`, the melting point is 169 to 172 °C.

`Cl.O=C(Nc1nc(-c2ccc(F)cc2)c(N2CCN(C3CCCCC3)CC2)s1)c1ccc(O)c(Cl)c1`: the melting point is 270 to 272 °C (dec.).

Turning to `COc1cc(C(=O)Nc2nc(-c3ccc(F)cc3)c(N3CCN(C4CCCCC4)CC3)s2)ccn1` [Example 2, N-[5-(4-cyclohexylpiperazin-1-yl)-4-(4-fluorophenyl)thiazol-2-yl]-2-methoxyi sonicotinamide], the melting point is 263 to 266 °C. The “Number of megakaryocyte colonies” value in the data set with human CD34+ cell (test compound 0.3 μM) is 5.2. Further, the “Number of megakaryocyte colonies” value in the data set on human CD34+ cell (test compound 1.0 μM) was determined as 19.0. Further, the “Number of megakaryocyte colonies” value in the data set with human CD34+ cell (test compound 3.0 μM) worked out at 34.8.
